Test results: ChEMBL document CHEMBL4673385, “Discovery of Potent Inhibitors of Streptococcus mutans Biofilm with Antivirulence Activity” (ACS Med Chem Lett, 2021)
The source made the active and inactive calls. Unless noted, the rule behind the calls is not given here.

What was measured:
[1] = test system: Streptococcus gordonii; assay: Bactericidal activity against Streptococcus gordonii DL1 assessed as reduction in bacterial growth at 100 uM after 24 hrs; assay type: functional
[2] = biological target: T1, Glucosyltransferase-S (Streptococcus mutans serotype c (strain ATCC 700610 / UA159)) (UniProt P49331); assay: Inhibition of GtfD in Streptococcus mutans UA159 assessed as reduction in glucans level by Coomassie blue dye based SDS-PAGE analysis
T1 sequence (whole entry): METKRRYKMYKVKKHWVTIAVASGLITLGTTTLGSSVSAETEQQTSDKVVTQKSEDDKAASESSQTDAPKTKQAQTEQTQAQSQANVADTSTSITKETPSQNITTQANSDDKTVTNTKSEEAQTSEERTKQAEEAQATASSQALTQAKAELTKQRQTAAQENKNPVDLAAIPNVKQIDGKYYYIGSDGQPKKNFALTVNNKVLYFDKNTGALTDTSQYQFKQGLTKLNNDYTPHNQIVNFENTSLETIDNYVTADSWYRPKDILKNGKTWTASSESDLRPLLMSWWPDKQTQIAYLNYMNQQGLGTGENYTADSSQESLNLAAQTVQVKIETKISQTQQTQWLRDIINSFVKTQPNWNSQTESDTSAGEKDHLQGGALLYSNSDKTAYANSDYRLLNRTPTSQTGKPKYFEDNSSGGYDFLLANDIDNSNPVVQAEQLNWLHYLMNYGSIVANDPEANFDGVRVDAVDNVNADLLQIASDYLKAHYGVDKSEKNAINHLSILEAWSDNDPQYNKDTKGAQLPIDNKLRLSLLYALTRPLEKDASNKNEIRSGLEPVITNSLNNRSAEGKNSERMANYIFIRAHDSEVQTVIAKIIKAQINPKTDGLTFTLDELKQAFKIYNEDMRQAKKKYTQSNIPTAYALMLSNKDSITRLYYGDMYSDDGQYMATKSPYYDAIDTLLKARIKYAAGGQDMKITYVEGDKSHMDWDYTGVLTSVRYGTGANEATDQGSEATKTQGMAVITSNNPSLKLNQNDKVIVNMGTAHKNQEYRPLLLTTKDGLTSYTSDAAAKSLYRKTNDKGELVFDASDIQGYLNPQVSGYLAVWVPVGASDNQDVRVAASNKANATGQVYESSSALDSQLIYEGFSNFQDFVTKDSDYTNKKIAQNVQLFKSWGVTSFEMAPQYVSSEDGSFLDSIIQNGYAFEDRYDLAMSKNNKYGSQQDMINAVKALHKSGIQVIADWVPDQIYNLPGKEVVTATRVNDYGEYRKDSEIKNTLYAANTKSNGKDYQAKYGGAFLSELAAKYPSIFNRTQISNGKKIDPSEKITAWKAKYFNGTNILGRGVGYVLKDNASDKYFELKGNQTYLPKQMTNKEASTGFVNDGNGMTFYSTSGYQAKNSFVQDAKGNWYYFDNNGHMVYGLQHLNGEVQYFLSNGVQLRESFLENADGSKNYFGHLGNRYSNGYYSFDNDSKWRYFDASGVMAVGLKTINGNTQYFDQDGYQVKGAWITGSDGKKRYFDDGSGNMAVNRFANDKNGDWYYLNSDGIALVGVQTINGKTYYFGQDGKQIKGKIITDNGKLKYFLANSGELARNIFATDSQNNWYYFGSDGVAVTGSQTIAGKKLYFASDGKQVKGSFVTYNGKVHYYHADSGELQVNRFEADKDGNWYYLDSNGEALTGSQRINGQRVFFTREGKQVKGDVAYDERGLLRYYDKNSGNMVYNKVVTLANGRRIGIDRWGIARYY

[3] = Toxicity in Fischer 344 rat infected with Streptococcus mutans UA159 assessed as reduction in body weight at 100 uM topically administered measured after 43 days; details: in vivo, topical_or_ocular, 1032 h, time 43 day
[4] = test system: Streptococcus mutans; assay: Antibiofilm activity against Streptococcus mutans UA159 infected in Fischer 344 rat assessed as sulcal score at 100 uM topically administered measured after 43 days; assay type: functional, organism-based; details: time 43.0 day
[5] = test system: Streptococcus mutans; assay: Antibiofilm activity against Streptococcus mutans UA159 infected in Fischer 344 rat assessed as proximal surface score at 100 uM topically administered measured after 43 days; assay type: functional, organism-based; details: time 43.0 day
[6] = test system: Streptococcus mutans; assay: Antibiofilm activity against Streptococcus mutans UA159 infected in Fischer 344 rat assessed as reduction in colony forming units at 100 uM topically administered measured after 43 days; assay type: functional, organism-based; details: time 43.0 day
[7] = test system: Streptococcus sanguinis; assay: Bactericidal activity against Streptococcus sanguinis SK36 assessed as reduction in bacterial growth at 100 uM after 24 hrs; assay type: functional
[8] = test system: Streptococcus mutans; assay: Bactericidal activity against Streptococcus mutans UA159 assessed as reduction in bacterial growth at 100 uM after 24 hrs; assay type: functional, organism-based
[9] = test system: Streptococcus mutans; assay: Antibiofilm activity against Streptococcus mutans UA159 infected in Fischer 344 rat assessed as buccal score at 100 uM topically administered measured after 43 days; assay type: functional, organism-based; details: time 43.0 day
[10] = Inhibition of Gtf in Streptococcus mutans UA159 assessed as reduction in glucans level by Coomassie blue dye based SDS-PAGE analysis

NC(=O)c1ccccc1NC(=O)c1cnc2ccccc2c1
Activity [1]: inactive
inhibition [2]: Active
Activity [3]: Non-Toxic
Activity [4]: Active
Activity [5]: Active
Activity [6]: inactive
Activity [7]: inactive
Activity [8]: inactive
Activity [9]: Active

O=C(c1ccc(F)cc1)c1ccc(-c2[nH]c(-c3ccc([N+](=O)[O-])cc3O)nc2-c2ccccc2)cc1
inhibition [2]: Active

NC(=O)c1cccc(NC(=O)c2cnc3ccccc3c2)c1
inhibition [2]: Active
Activity [8]: inactive

CC(C)(C)OC(=O)NCc1ccccc1NC(=O)c1cnc2ccccc2c1
inhibition [2]: Active
Activity [8]: inactive

CC(C)(C)OC(=O)NCc1ccccc1NC(=O)c1cc2cc([N+](=O)[O-])ccc2s1
inhibition [2]: Active
Activity [8]: inactive

COC(=O)c1ccc(NC(=O)c2cc3cc([N+](=O)[O-])ccc3s2)cc1
inhibition [2]: Active
Activity [8]: inactive

NC(=O)c1ccccc1NC(=O)c1cc2cc([N+](=O)[O-])ccc2s1
Activity [1]: inactive
inhibition [2]: Active
Activity [4]: Active
Activity [5]: Active
Activity [6]: inactive
Activity [7]: inactive
Activity [8]: inactive
Activity [9]: Active
IC50 [10]: 10 µM
